Measurements as given in patent publication US20250313579A1, “LIGAND COMPOUNDS COMPRISING A CHELATING GROUP AS A BRIDGING GROUP” (Technische Universität München, priority 2021, published 2025).

Assay: Octanol-water distribution coefficient (LogDpH=7.4)
Format: physicochemical
Settings: n-octanol/PBS pH 7.4; radioactive ligand
Experimental: This distribution coefficient may be determined by measuring the equilibrium distribution, e.g. at room temperature (20° C.o) of a compound in accordance with the invention in a two-phase system containing equal amounts, such as 1.00 ml each, of n-octanol and PBS (pH=7.4), and calculating the logD7.4 value as log 10 (concentration in octanol/concentration in PBS). Instead of the (absolute) concentration of the compound in accordance with the invention in the octanol and the PBS, a parameter which is proportional to the concentration of the compound in each phase may also be used for the calculation, such as the activity of radiation if the compound comprises a radioactive moiety, e.g. a radioactive chelate.
The radioactive ligand of interest (0.7-1.0 MBq) is given to a mixture of n-octanol and PBS (1 ml, 1/1; v/V) in a 1.5 ml reaction tube and shaken vigorously for 3 min. The resulting mixture is centrifuged (9000 rpm, 5 min, RT), and 100 μl of the octanol and PBS phases isolated separately.
Quantification occurs by the determination of the activity of each isolated probe in a γ-counter. The LogDpH=7.4 value is determined by the following equation:
The determination of the final LogDpH=7.4 value is executed in octets. The mean value and standard deviation are determined after the removal of outlying values.

SMILES	LogDpH=7.4
C[C@@H](O)[C@H](NC(=O)[C@@H]1CSSC[C@H](NC(=O)[C@@H](Cc2ccccc2)NC(=O)CN2CCN(CC(=O)O)CCN(CC(=O)NCCCC[C@@H](NC(=O)[C@@H](CNC(=O)C[N+](C)(C)Cc3ccc([Si](F)(C(C)(C)C)C(C)(C)C)cc3)NC(=O)[C@@H](CN)NC(=O)[C@@H](CCC(=O)O)NC(=O)[C@H](N)CCC(=O)O)C(=O)O)CCN(CC(=O)O)CC2)C(=O)N[C@@H](Cc2ccc(O)cc2)C(=O)N[C@H](Cc2c[nH]c3ccccc23)C(=O)N[C@@H](CCCCN)C(=O)N[C@@H]([C@@H](C)O)C(=O)N1)C(=O)O [Compound 05, H-D-Glu-D-Glu-D-Dap-D-Dap(N-SiFAlin-N,N-Mez-Gly)-D-Lys(trans-DOTA-TATE)-OH]	−1.96 ± 0.06
C[C@@H](O)[C@H](NC(=O)[C@@H]1CSSC[C@H](NC(=O)[C@@H](Cc2ccccc2)NC(=O)CN2CCN(CC(=O)O)CCN(CC(=O)NCCCC[C@@H](NC(=O)[C@@H](CNC(=O)C[N+](C)(C)Cc3ccc([Si](F)(C(C)(C)C)C(C)(C)C)cc3)NC(=O)[C@@H](CCCCN)NC(=O)[C@@H](CCC(=O)O)NC(=O)[C@H](N)CCC(=O)O)C(=O)O)CCN(CC(=O)O)CC2)C(=O)N[C@@H](Cc2ccc(O)cc2)C(=O)N[C@H](Cc2c[nH]c3ccccc23)C(=O)N[C@@H](CCCCN)C(=O)N[C@@H]([C@@H](C)O)C(=O)N1)C(=O)O [Compound 06, H-D-Glu-D-Glu-D-Lys-D-Dap(N-SiFAlin-N,N-Mez-Gly)-D-Lys(trans-DOTA-TATE)-OH]	−2.36 ± 0.03
C[C@@H](O)[C@H](NC(=O)[C@@H]1CSSC[C@H](NC(=O)[C@@H](Cc2ccccc2)NC(=O)CN2CCN(CC(=O)O)CCN(CC(=O)NCCCC[C@@H](NC(=O)C[N+](C)(C)Cc3ccc([Si](F)(C(C)(C)C)C(C)(C)C)cc3)C(=O)O)CCN(CC(=O)O)CC2)C(=O)N[C@@H](Cc2ccc(O)cc2)C(=O)N[C@H](Cc2c[nH]c3ccccc23)C(=O)N[C@@H](CCCCN)C(=O)N[C@@H]([C@@H](C)O)C(=O)N1)C(=O)O [[Ga]01, N-SiFAlin-N,N-Me2-Gly-D-Lys(trans-[^natGa] DOTA-TATE)-OH, metal not drawn]	−1.19 ± 0.07
C[C@@H](O)[C@H](NC(=O)[C@@H]1CSSC[C@H](NC(=O)[C@@H](Cc2ccccc2)NC(=O)CN2CCN3CCN(CC(=O)NC[C@@H](NC(=O)C[N+](C)(C)Cc4ccc([Si](F)(C(C)(C)C)C(C)(C)C)cc4)C(=O)O)CCN(CC2)CC(=O)[O][Ga+][O]C(=O)C3)C(=O)N[C@@H](Cc2ccc(O)cc2)C(=O)N[C@H](Cc2c[nH]c3ccccc23)C(=O)N[C@@H](CCCCN)C(=O)N[C@@H]([C@@H](C)O)C(=O)N1)C(=O)O [[Ga]02, N-SiFAlin-N, N-Me2-Gly-D-Dap(trans-[^natGa] DOTA-TATE)-OH]	−1.03 ± 0.04
C[C@@H](O)[C@H](NC(=O)[C@@H]1CSSC[C@H](NC(=O)[C@@H](Cc2ccccc2)NC(=O)CN2CCN(CC(=O)O)CCN(CC(=O)NCCCC[C@@H](NC(=O)[C@@H](CNC(=O)C[N+](C)(C)Cc3ccc([Si](F)(C(C)(C)C)C(C)(C)C)cc3)NC(=O)[C@@H](CCCNC(N)=O)NC(=O)[C@@H](CCCNC(N)=O)NC(=O)[C@H](N)CCCNC(N)=O)C(=O)O)CCN(CC(=O)O)CC2)C(=O)N[C@@H](Cc2ccc(O)cc2)C(=O)N[C@H](Cc2c[nH]c3ccccc23)C(=O)N[C@@H](CCCCN)C(=O)N[C@@H]([C@@H](C)O)C(=O)N1)C(=O)O [[Ga]03, H-D -Cit-D -Cit-D -Cit-D-Dap(N-SiFAlin-N,N-Me2-Gly)-D-Lys(trans-[na′Ga] DOTA-TATE)-OH]	−2.27 ± 0.04
C[C@@H](O)[C@H](NC(=O)[C@@H]1CSSC[C@H](NC(=O)[C@@H](Cc2ccccc2)NC(=O)CN2CCN(CC(=O)O)CCN(CC(=O)NCCCC[C@@H](NC(=O)[C@@H](CNC(=O)C[N+](C)(C)Cc3ccc([Si](F)(C(C)(C)C)C(C)(C)C)cc3)NC(=O)[C@@H](CCCNC(N)=O)NC(=O)[C@@H](CCCNC(N)=O)NC(=O)[C@H](N)CCC(=O)O)C(=O)O)CCN(CC(=O)O)CC2)C(=O)N[C@@H](Cc2ccc(O)cc2)C(=O)N[C@H](Cc2c[nH]c3ccccc23)C(=O)N[C@@H](CCCCN)C(=O)N[C@@H]([C@@H](C)O)C(=O)N1)C(=O)O [[Ga]04, H-D-Glu-D -Cit-D -Cit-D-Dap(N-SiFAlin-N,N-Mez-Gly)-D-Lys(trans-[^natGa] DOTA-TATE)-OH, metal not drawn]	−2.30 ± 0.03
C[C@@H](O)[C@H](NC(=O)[C@@H]1CSSC[C@H](NC(=O)[C@@H](Cc2ccccc2)NC(=O)CN2CCN3CCN(CC(=O)NCCCC[C@@H](NC(=O)[C@@H](CNC(=O)C[N+](C)(C)Cc4ccc([Si](F)(C(C)(C)C)C(C)(C)C)cc4)NC(=O)[C@@H](CN)NC(=O)[C@@H](CCC(=O)O)NC(=O)[C@H](N)CCC(=O)O)C(=O)O)CCN(CC2)CC(=O)[O][Ga+][O]C(=O)C3)C(=O)N[C@@H](Cc2ccc(O)cc2)C(=O)N[C@H](Cc2c[nH]c3ccccc23)C(=O)N[C@@H](CCCCN)C(=O)N[C@@H]([C@@H](C)O)C(=O)N1)C(=O)O [[Ga]05, H-D-Glu-D-Glu-D-Dap-D-Dap(N-SiFAlin-N,N-Me2-Gly)-D-Lys(trans-[^natGa] DOTA-TATE)-OH]	−2.12 ± 0.06
C[C@@H](O)[C@H](NC(=O)[C@@H]1CSSC[C@H](NC(=O)[C@@H](Cc2ccccc2)NC(=O)CN2CCN3CCN(CC(=O)NCCCC[C@@H](NC(=O)[C@@H](CNC(=O)C[N+](C)(C)Cc4ccc([Si](F)(C(C)(C)C)C(C)(C)C)cc4)NC(=O)[C@@H](CCCCN)NC(=O)[C@@H](CCC(=O)O)NC(=O)[C@H](N)CCC(=O)O)C(=O)O)CCN(CC2)CC(=O)[O][Ga+][O]C(=O)C3)C(=O)N[C@@H](Cc2ccc(O)cc2)C(=O)N[C@H](Cc2c[nH]c3ccccc23)C(=O)N[C@@H](CCCCN)C(=O)N[C@@H]([C@@H](C)O)C(=O)N1)C(=O)O [[Ga]06, H-D-Glu-D-Glu-D-Lys-D-Dap(N-SiFAlin-N, N-Me2-Gly)-D-Lys(trans-[^natGa] DOTA-TATE)-OH]	−2.28 ± 0.04
C[C@@H](O)[C@H](NC(=O)[C@@H]1CSSC[C@H](NC(=O)[C@@H](Cc2ccccc2)NC(=O)CN2CCN3CCN(CC(=O)NCCCC[C@@H](NC(=O)[C@@H](CNC(=O)C[N+](C)(C)Cc4ccc([Si](F)(C(C)(C)C)C(C)(C)C)cc4)NC(=O)[C@@H](CCC(=O)O)NC(=O)[C@@H](CCC(=O)O)NC(=O)[C@H](N)CCC(=O)O)C(=O)O)CCN(CC2)CC(=O)[O][Ga+][O]C(=O)C3)C(=O)N[C@@H](Cc2ccc(O)cc2)C(=O)N[C@H](Cc2c[nH]c3ccccc23)C(=O)N[C@@H](CCCCN)C(=O)N[C@@H]([C@@H](C)O)C(=O)N1)C(=O)O [[Ga]07, H-D-Glu-D-Glu-D-Glu-D-Dap(N-SiFAlin-N,N-Me2-Gly)-D-Lys(trans-[^natGa] DOTA-TATE)-OH]	−2.30 ± 0.04
C[C@@H](O)[C@H](NC(=O)[C@@H]1CSSC[C@H](NC(=O)[C@@H](Cc2ccccc2)NC(=O)CN2CCN3CCN(CC(=O)NCCCC[C@@H](NC(=O)[C@@H](CCC(=O)O)NC(=O)[C@@H](CNC(=O)C[N+](C)(C)Cc4ccc([Si](F)(C(C)(C)C)C(C)(C)C)cc4)NC(=O)[C@@H](CCC(=O)O)NC(=O)[C@@H](CCC(=O)O)NC(=O)[C@H](N)CCC(=O)O)C(=O)O)CCN(CC2)CC(=O)[O][Ga+][O]C(=O)C3)C(=O)N[C@@H](Cc2ccc(O)cc2)C(=O)N[C@H](Cc2c[nH]c3ccccc23)C(=O)N[C@@H](CCCCN)C(=O)N[C@@H]([C@@H](C)O)C(=O)N1)C(=O)O [[Ga]08, H-D-Glu-D-Glu-D-Glu-D-Dap(N-SiFAlin-N,N-Me2-Gly)-D-Glu-D-Lys(trans-[^natGa] DOTA-TATE)-OH]	−2.07 ± 0.04
C[C@@H](O)[C@H](NC(=O)[C@@H]1CSSC[C@H](NC(=O)[C@@H](Cc2ccccc2)NC(=O)CN2CCN(CC(=O)O)CCN(CC(=O)NCCCC[C@@H](NC(=O)[C@@H](CNC(=O)C[N+](C)(C)Cc3ccc([Si](F)(C(C)(C)C)C(C)(C)C)cc3)NC(=O)[C@@H](CCC(=O)O)NC(=O)[C@@H](CCC(=O)O)NC(=O)[C@@H](CCC(=O)O)NC(=O)[C@]3(O)C[C@@H](O)[C@@H](O)[C@H](O)C3)C(=O)O)CCN(CC(=O)O)CC2)C(=O)N[C@@H](Cc2ccc(O)cc2)C(=O)N[C@H](Cc2c[nH]c3ccccc23)C(=O)N[C@@H](CCCCN)C(=O)N[C@@H]([C@@H](C)O)C(=O)N1)C(=O)O [[Ga]09, D-(−)-quinic acid-D-Glu-D-Glu-D-Glu-D-Dap(N-SiFAlin-N,N-Me2-Gly)-D-Lys(trans-[^natGa] DOTA-TATE)-OH, metal not drawn]	−2.28 ± 0.04
